Reference: patent publication US12071404B2, “Aza (indole)-, benzothiophene-, and benzofuran-3-sulfonamides” (UCB Pharma GmbH, priority 2016, dated 2024)

How the values were obtained:
GPR17 [1] = molecular target: T1, GPR17 (Homo sapiens, UniProt Q13304); assay: cAMP accumulation functional assay (HTRF, Schild analysis); type: cell-based; design: host or cells: Flp-In T-REx CHO; conditions: CHO hGPR17 cells, Schild analysis vs MDL29,951, 5 μM forskolin, read-out: cAMP assay pA2 (converted)
Summary of the method: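 CHO Flp-In T-REx cells with doxycycline-induced human GPR17 were preincubated 30 min at room temperature in HBSS-HEPES pH 7.4 with antagonist. cAMP was then measured by HTRF after 60 min. MDL29,951 pEC50 shifts gave dose ratios, and Schild analysis gave pA2.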

GPR17 [2] = molecular target: T1, GPR17; assay: Calcium mobilization functional assay (GPR17 Ca2+ assay); type: cell-based; design: host or cells: Flp-In T-REx CHO; conditions: CHO hGPR17 cells, inhibition of 50 nM MDL29,951, Calcium 5 dye, FLIPR; read-out: Ca2+ assay pIC50 (converted)
Summary of the method: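 Flp-In T-REx CHO cells stably expressing human GPR17, doxycycline-induced (1 μg/mL, 16-20 h), loaded 60 min with Calcium 5 dye. Inhibition by varying test-compound concentrations of the 50 nM MDL29,951 agonist response was read by fluorescence over time at room temperature. pIC50 came from 4-parameter logistic fitting.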

T1 sequence (Q13304 whole entry): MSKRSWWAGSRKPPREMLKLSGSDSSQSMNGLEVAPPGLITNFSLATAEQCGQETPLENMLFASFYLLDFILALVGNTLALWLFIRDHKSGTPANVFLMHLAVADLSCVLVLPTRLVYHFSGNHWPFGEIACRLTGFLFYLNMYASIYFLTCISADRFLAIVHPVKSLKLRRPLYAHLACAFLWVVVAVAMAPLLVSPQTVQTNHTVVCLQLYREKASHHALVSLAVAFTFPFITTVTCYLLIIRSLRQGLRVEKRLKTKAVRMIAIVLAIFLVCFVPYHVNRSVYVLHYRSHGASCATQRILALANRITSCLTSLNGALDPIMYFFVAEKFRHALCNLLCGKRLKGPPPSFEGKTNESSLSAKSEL

| Structure (SMILES) | Kb (GPR17 [1]) [nM] | IC50 (GPR17 [2]) [nM] |
| --- | --- | --- |
| N#Cc1ccc2c(S(=O)(=O)Nc3ccc(Cl)cc3F)c[nH]c2c1 [Compound I-76, N-(4-chloro-2-fluorophenyl)-6-cyano-1H-indole-3-sulfonamide] | > 31.6 | > 31.6 |
| O=S(=O)(Nc1cc(F)c(Cl)cc1F)c1c[nH]c2nc(C(F)(F)F)ccc12 [Compound I-247, N-(4-chloro-2,5-difluorophenyl)-6-(trifluoromethyl)-1H-pyrrolo[2,3-b]pyridine-3-sulfonamide] | < 3.16 | 3.16 to 31.6 |
| N#CCCc1cc(F)c(NS(=O)(=O)c2c[nH]c3c2ccc2cccnc23)cc1F [Compound I-362, N-[4-(2-cyanoethyl)-2,5-difluorophenyl]-1H-pyrrolo[3,2-h]quinoline-3-sulfonamide] | < 3.16 | 3.16 to 31.6 |
| N#Cc1ccc(NS(=O)(=O)c2c[nH]c3cc(F)ccc23)c(F)c1 [Compound I-113, N-(4-cyano-2-fluorophenyl)-6-fluoro-1H-indole-3-sulfonamide] | > 31.6 | 3.16 to 31.6 |
| COc1nc(NS(=O)(=O)c2c[nH]c3cc(Cl)c(F)cc23)c(F)cc1Cl [Compound I-339, 6-chloro-N-(5-chloro-3-fluoro-6-methoxypyridin-2-yl)-5-fluoro-1H-indole-3-sulfonamide] | 3.16 to 31.6 | < 3.16 |
| O=S(=O)(Nc1cc2nsnc2cc1F)c1c[nH]c2c1ccc1ccccc12 [Compound I-160, N-(6-fluoro-2,1,3-benzothiadiazol-5-yl)-1H-benzo[g]indole-3-sulfonamide] | 3.16 to 31.6 | < 3.16 |
| C#Cc1ccc(NS(=O)(=O)c2c[nH]c3cc(Cl)ccc23)c(F)c1 [Compound I-210, 6-chloro-N-(4-ethynyl-2-fluorophenyl)-1H-indole-3-sulfonamide] | < 3.16 | 3.16 to 31.6 |
| O=S(=O)(Nc1nc(F)c(Cl)cc1F)c1c[nH]c2nc(Cl)ccc12 [Compound I-307, 6-chloro-N-(5-chloro-3,6-difluoropyridin-2-yl)-1H-pyrrolo[2,3-b]pyridine-3-sulfonamide] | 3.16 to 31.6 | 3.16 to 31.6 |
| COc1nc(NS(=O)(=O)c2c[nH]c3c(Cl)c(F)ccc23)c(F)cc1Cl [Compound I-357, 7-chloro-N-(5-chloro-3-fluoro-6-methoxypyridin-2-yl)-6-fluoro-1H-indole-3-sulfonamide] | 3.16 to 31.6 | 3.16 to 31.6 |
| O=C1NCc2cc(F)c(NS(=O)(=O)c3c[nH]c4cc(Cl)ccc34)cc21 [Compound I-265, 6-chloro-N-(6-fluoro-3-oxo-2,3-dihydro-1H-isoindol-5-yl)-1H-indole-3-sulfonamide] | > 31.6 | 3.16 to 31.6 |
| O=S(=O)(Nc1cc(F)c(OCC2CC2)cc1F)c1c[nH]c2cc(Cl)ccc12 [Compound I-260, 6-chloro-N-[4-(cyclopropylmethoxy)-2,5-difluorophenyl]-1H-indole-3-sulfonamide] | 3.16 to 31.6 | 3.16 to 31.6 |
| COc1nc(NS(=O)(=O)c2csc3cc(Cl)ccc23)c(F)cc1CC#N [Compound I-315, 6-chloro-N-[5-(cyanomethyl)-3-fluoro-6-methoxypyridin-2-yl]-1-benzothiophene-3-sulfonamide] | < 3.16 | < 3.16 |
| O=S(=O)(Nc1cc2nsnc2cc1F)c1c[nH]c2cc(Cl)ccc12 [Compound I-162, 6-chloro-N-(6-fluoro-2,1,3-benzothiadiazol-5-yl)-1H-indole-3-sulfonamide] | < 3.16 | < 3.16 |
| N#Cc1ccc(NS(=O)(=O)c2c[nH]c3cc(C4CC4)ccc23)cc1 [Compound I-133, N-(4-cyanophenyl)-6-cyclopropyl-1H-indole-3-sulfonamide] | 3.16 to 31.6 | < 3.16 |
| O=S(=O)(Nc1cc(F)c(Cl)cc1F)c1c[nH]c2cc(Br)cc(F)c12 [Compound I-251, 6-bromo-N-(4-chloro-2,5-difluorophenyl)-4-fluoro-1H-indole-3-sulfonamide] | 3.16 to 31.6 | 3.16 to 31.6 |
| N#Cc1c(Cl)ccc2c(S(=O)(=O)Nc3cc(F)c(Cl)cc3F)c[nH]c12 [Compound I-256, 6-chloro-N-(4-chloro-2,5-difluorophenyl)-7-cyano-1H-indole-3-sulfonamide] | < 3.16 | < 3.16 |
| COc1ccc2c(S(=O)(=O)Nc3ccc(Cl)cc3F)c[nH]c2c1 [Compound I-69, N-(4-chloro-2-fluorophenyl)-6-methoxy-1H-indole-3-sulfonamide] | > 31.6 | > 31.6 |
| COCCOc1cc(F)c(NS(=O)(=O)c2c[nH]c3cc(Cl)ccc23)nc1F [Compound I-365, 6-chloro-N-[3,6-difluoro-5-(2-methoxyethoxy)pyridin-2-yl]-1H-indole-3-sulfonamide] | 3.16 to 31.6 | 3.16 to 31.6 |

| Structure (SMILES) | Kb (GPR17 [1]) [nM] | IC50 (GPR17 [2]) [nM] |
| --- | --- | --- |
| O=C1OCc2cc(F)c(NS(=O)(=O)c3c[nH]c4cc(Cl)ccc34)cc21 [Compound I-243, 6-chloro-N-(6-fluoro-3-oxo-1,3-dihydro-2-benzofuran-5-yl)-1H-indole-3-sulfonamide] | 3.16 to 31.6 | 3.16 to 31.6 |
| N#Cc1ccc(NS(=O)(=O)c2c[nH]c3cc(Cl)ccc23)cc1Cl [Compound I-181, 6-chloro-N-(3-chloro-4-cyanophenyl)-1H-indole-3-sulfonamide] | 3.16 to 31.6 | 3.16 to 31.6 |
| N#Cc1cc(F)c(NS(=O)(=O)c2c[nH]c3cc(Br)ccc23)cc1F [Compound I-188, 6-bromo-N-(4-cyano-2,5-difluorophenyl)-1H-indole-3-sulfonamide] | < 3.16 | < 3.16 |
| COc1ccc2c(S(=O)(=O)Nc3cc(F)c(Br)cc3F)c[nH]c2n1 [Compound I-272, N-(4-bromo-2,5-difluorophenyl)-6-methoxy-1H-pyrrolo[2,3-b]pyridine-3-sulfonamide] | < 3.16 | 3.16 to 31.6 |
| O=S(=O)(Nc1cc(F)c(Cl)cc1F)c1c[nH]c2nc(Cl)ccc12 [Compound I-227, 6-chloro-N-(4-chloro-2,5-difluorophenyl)-1H-pyrrolo[2,3-b]pyridine-3-sulfonamide] | < 3.16 | < 3.16 |
| O=S(=O)(Nc1ccc(Cl)cn1)c1c[nH]c2cc(Cl)ccc12 [Compound I-63, 6-chloro-N-(5-chloropyridin-2-yl)-1H-indole-3-sulfonamide] | 3.16 to 31.6 | > 31.6 |
| O=S(=O)(Nc1ccc(S(F)(F)(F)(F)F)cc1F)c1c[nH]c2nc(Cl)ccc12 [Compound I-295, 6-chloro-N-[2-fluoro-4-(pentafluoro-lambda-6-sulfanyl)phenyl]-1H-pyrrolo[2,3-b]pyridine-3-sulfonamide] | 3.16 to 31.6 | 3.16 to 31.6 |
| N#Cc1ccc(NS(=O)(=O)c2c[nH]c3c2ccc2ccccc23)c(F)c1 [Compound I-152, N-(4-cyano-2-fluorophenyl)-1H-benzo[g]indole-3-sulfonamide] | < 3.16 | < 3.16 |
| CC1OC(=O)c2cc(NS(=O)(=O)c3c[nH]c4cc(Cl)ccc34)c(F)cc21 (stereo not drawn) [Compound I-327, 6-chloro-N-(6-fluoro-1-methyl-3-oxo-1,3-dihydro-2-benzofuran-5-yl)-1H-indole-3-sulfonamide] | < 3.16 | < 3.16 |
| N#Cc1ccc(NS(=O)(=O)c2c[nH]c3cc(Br)ccc23)c(F)c1 [Compound I-114, 6-bromo-N-(4-cyano-2-fluorophenyl)-1H-indole-3-sulfonamide] | < 3.16 | < 3.16 |
| N#Cc1ccc(NS(=O)(=O)c2c[nH]c3nc(Br)ccc23)cc1 [Compound I-80, 6-bromo-N-(4-cyanophenyl)-1H-pyrrolo[2,3-b]pyridine-3-sulfonamide] | 3.16 to 31.6 | < 3.16 |
| COc1cc(NS(=O)(=O)c2c[nH]c3cc(Cl)ccc23)ncc1Cl [Compound I-60, 6-chloro-N-(5-chloro-4-methoxypyridin-2-yl)-1H-indole-3-sulfonamide] | > 31.6 | > 31.6 |
| COc1cc(Br)c(F)nc1NS(=O)(=O)c1c[nH]c2cc(Cl)ccc12 [Compound I-349, N-(5-bromo-6-fluoro-3-methoxypyridin-2-yl)-6-chloro-1H-indole-3-sulfonamide] | < 3.16 | < 3.16 |
| Cc1noc(C)c1-c1c(Cl)ccc2c(S(=O)(=O)Nc3cc(F)c(Cl)cc3F)c[nH]c12 [Compound I-250, 6-chloro-N-(4-chloro-2,5-difluorophenyl)-7-(3,5-dimethyl-1,2-oxazol-4-yl)-1H-indole-3-sulfonamide] | 3.16 to 31.6 | 3.16 to 31.6 |
| N#Cc1ccc(NS(=O)(=O)c2c[nH]c3c2ccc2ccccc23)cc1 [Compound I-159, N-(4-cyanophenyl)-1H-benzo[g]indole-3-sulfonamide] | 3.16 to 31.6 | 3.16 to 31.6 |
| N#Cc1ccc(NS(=O)(=O)c2c[nH]c3cc(-c4cccnc4)ccc23)c(F)c1 [Compound I-229, N-(4-cyano-2-fluorophenyl)-6-(pyridin-3-yl)-1H-indole-3-sulfonamide] | 3.16 to 31.6 | 3.16 to 31.6 |
| COc1ccc2c(S(=O)(=O)Nc3cc(F)c(Cl)cc3F)c[nH]c2n1 [Compound I-281, N-(4-chloro-2,5-difluorophenyl)-6-methoxy-1H-pyrrolo[2,3-b]pyridine-3-sulfonamide] | 3.16 to 31.6 | 3.16 to 31.6 |
| O=S(=O)(Nc1cccc2nsnc12)c1c[nH]c2cc(F)ccc12 [Compound I-107, N-(2,1,3-benzothiadiazol-4-yl)-6-fluoro-1H-indole-3-sulfonamide] | 3.16 to 31.6 | 3.16 to 31.6 |
